Experimental data: PMC8457666 (Science Advances, 2021)
Changes are numbered by the printed parent chain.

Columns and labels:
WzcCDΔC [1] = molecular target: T1, WzcCDΔC (Escherichia coli, UniProt P76387, K540M); assay: isothermal titration calorimetry, one-site model; type: binding
T1 sequence (P76387 447-704 K540M limits assumed): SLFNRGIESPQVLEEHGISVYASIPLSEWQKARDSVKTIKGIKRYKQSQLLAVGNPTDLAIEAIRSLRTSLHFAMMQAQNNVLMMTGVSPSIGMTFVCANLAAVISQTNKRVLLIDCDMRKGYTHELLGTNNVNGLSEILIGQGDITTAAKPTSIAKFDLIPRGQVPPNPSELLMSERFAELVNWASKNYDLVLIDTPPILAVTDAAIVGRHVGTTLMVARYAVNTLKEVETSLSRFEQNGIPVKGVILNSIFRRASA

WzcCDΔC [2] = molecular target: T2, WzcCDΔC (Escherichia coli, UniProt P76387); assay: isothermal titration calorimetry, one-site model; type: binding
T2 sequence (P76387 447-704 limits assumed): T1 sequence (P76387 447-704 K540M limits assumed) with M94K

Kd (WzcCDΔC [1]): 500 ± 200 nM
Kd (WzcCDΔC [2]): 2600 ± 1100 nM
SMILES: Nc1ncnc2c1ncn2[C@@H]1O[C@H](COP(=O)(O)OP(=O)(O)O)[C@@H](O)[C@H]1O [ADP]
